Measured values taken from PMC11596630 (Molecules, 2024).

Tests used:
[1] = target: T1, recombinant human AChE (Homo sapiens, UniProt P22303); assay: Inhibition of human AChE (Ellman method, Hunter–Downs Ki); type: biochemical; details: for Ki: human AChE, Ki ± SE, at least three experiments, ATCh substrate; for SI = Ki(BChE)/Ki(AChE): selectivity index, AChE over BChE
T1 construct: gift of Dr Florian Nachon, Armed Forces Biomedical Research Institute, Brétigny-sur-Orge, France
Description: (§1) Acetylthiocholine (ATCh) and 5,5’-dithiobis(2-nitrobenzoic acid) (DTNB) were purchased from Sigma Chemical Co., St. Louis, MO, USA. ATCh was dissolved in water and DTNB in 0.1 M sodium phosphate buffer (pH 7.4). […] Purified human BChE and recombinant human AChE were kindly provided by Dr Florian Nachon (Département de Toxicologie, Armed Forces Biomedical Research Institute, Brétigny-sur-Orge, France). The enzymes were diluted in a phosphate sodium buffer 0.1 M (pH 7.4) containing 0.01% BSA.
(§2) Cholinesterase activity measurements, evaluation of Ki (dissociation constants of enzyme−inhibitor complex) and Ks constants (dissociation constants of enzyme−substrate complex) were performed following procedures described previously. Briefly, enzyme activity was measured spectrophotometrically using a slightly modified Ellman method. […] At least three concentrations of inhibitors for each substrate concentration were used in at least three experiments.
(§3) The y-intercept determines the enzyme–inhibitor dissociation constants (Ki), while the x-intercept determines the enzyme–substrate dissociation constant, KS [57].

[2] = target: T2, purified human BChE (Homo sapiens, UniProt P06276); assay: biochemical; type: biochemical; details: for Ki: human BChE, Ki ± SE, at least three experiments, ATCh substrate, read-out: Ki BChE
T2 construct: gift of Dr Florian Nachon, Armed Forces Biomedical Research Institute, Brétigny-sur-Orge, France
Description: as §1, §2, §3

[3] = FRAP assay (ferric reducing antioxidant power); details: 10 µM compound
Description: The in vitro antioxidant activity of tested compounds was evaluated using the FRAP assay following a procedure described earlier. […] Trolox and butylated hydroxytoluene (BHT) were used as standard antioxidants. The absorbance was recorded at 593 nm using a microplate reader (SpectraMax iD3, Molecular Devices, San Jose, CA, USA) against a blank. All measurements were taken in three independent triplicates in at least three independent experiments. FRAP values, denominating the reduction of ferric-tripyridyltriazine (Fe^3+-TPTZ) to ferrous tripyridyltriazine (Fe^2+-TPTZ) by the tested compounds, were calculated on the basis of a standard curve obtained using […].

[4] = Cytotoxicity MTS assay, HEK293; type: cell-based; details: human, HEK293 cells, 24 h exposure
Description: (§4) The human hepatocyte carcinoma HepG2 (ECACC 85011430), human embryo kidney HEK293 (ECACC 85120602) and human neuroblastoma SH-SY5Y (ECACC 94030304) cell lines were obtained from the certified cell-bank European Collection of Authenticated Cell Cultures (ECACC) through Sigma-Aldrich (Steinheim, Germany). HepG2 and HEK293 cells were grown in EMEM and SH-SY5Y in DMEM-F12, as described previously, and cell cultivation and maintenance were conducted according to standard protocol. All media and supplements were purchased from Sigma-Aldrich, Steinheim, Germany.
(§5) The cytotoxic profiles of tested compounds were determined by measuring the succinate dehydrogenase mitochondrial activity of exposed cells. The commercially available MTS detection reagent assay (CellTiter 96® AQueous One Solution Cell Proliferation Assay, Promega, Madison, WI, USA) was used. The procedure followed a previously described protocol. Cells were exposed to compounds in a concentration range of 0.01–1000 µM for 24 h. DMSO (20%) was used as positive control to validate the method. After desired time of incubation at 37 °C in a 5% CO2 atmosphere, cells were washed with PBS buffer and 100 µL of EMEM or DMEM medium and 20 µL of MTS were added in each well, incubated up to 1 h after which the absorbance was read at 492 nm on an Infinite M200PRO plate reader (Tecan Austria GmbH, Salzburg, Austria). Data are presented as percentages of the inhibited cells to control untreated cells, i.e., the percentage of cytotoxicity.

[5] = Cytotoxicity MTS assay, HepG2; type: cell-based; details: human, HepG2 cells, 24 h exposure
Description: as §4, §5

[6] = Cytotoxicity MTS assay, SH-SY5Y; type: cell-based; details: human, SH-SY5Y cells, 24 h exposure
Description: HepG2 and HEK293 cells were grown in EMEM and SH-SY5Y in DMEM-F12, as described previously, and cell cultivation and maintenance were conducted according to standard protocol. All media and supplements were purchased from Sigma-Aldrich, Steinheim, Germany.
as §5

[7] = Cytotoxicity MTS assay, over all three cell lines; type: cell-based, human; details: human, HEK293 and SH-SY5Y cells; HepG2, HEK293, SH-SY5Y; 24 h exposure
Description: as §4, §5

[8] = system: HepG2, HEK293 and SH-SY5Y; assay: Cytotoxicity MTS assay, over all three cell lines; type: cell-based, human; details: 24 h exposure
Description: as §4, §5

T2 sequence (P06276 29-602): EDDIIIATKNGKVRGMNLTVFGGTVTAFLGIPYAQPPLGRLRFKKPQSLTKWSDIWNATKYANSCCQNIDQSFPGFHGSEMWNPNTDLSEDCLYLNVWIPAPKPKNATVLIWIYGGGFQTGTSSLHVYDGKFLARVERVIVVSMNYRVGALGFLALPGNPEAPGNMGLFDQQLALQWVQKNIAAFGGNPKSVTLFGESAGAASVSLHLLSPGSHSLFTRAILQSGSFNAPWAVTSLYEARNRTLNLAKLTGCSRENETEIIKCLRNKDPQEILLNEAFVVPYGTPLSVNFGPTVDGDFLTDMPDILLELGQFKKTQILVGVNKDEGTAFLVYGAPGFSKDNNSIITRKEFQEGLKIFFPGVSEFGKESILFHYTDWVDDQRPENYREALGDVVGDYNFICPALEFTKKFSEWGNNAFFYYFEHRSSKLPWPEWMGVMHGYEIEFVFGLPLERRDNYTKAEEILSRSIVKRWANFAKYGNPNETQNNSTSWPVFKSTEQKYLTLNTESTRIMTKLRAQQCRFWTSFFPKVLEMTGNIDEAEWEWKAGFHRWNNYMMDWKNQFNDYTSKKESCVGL
T1 sequence (P22303 32-614): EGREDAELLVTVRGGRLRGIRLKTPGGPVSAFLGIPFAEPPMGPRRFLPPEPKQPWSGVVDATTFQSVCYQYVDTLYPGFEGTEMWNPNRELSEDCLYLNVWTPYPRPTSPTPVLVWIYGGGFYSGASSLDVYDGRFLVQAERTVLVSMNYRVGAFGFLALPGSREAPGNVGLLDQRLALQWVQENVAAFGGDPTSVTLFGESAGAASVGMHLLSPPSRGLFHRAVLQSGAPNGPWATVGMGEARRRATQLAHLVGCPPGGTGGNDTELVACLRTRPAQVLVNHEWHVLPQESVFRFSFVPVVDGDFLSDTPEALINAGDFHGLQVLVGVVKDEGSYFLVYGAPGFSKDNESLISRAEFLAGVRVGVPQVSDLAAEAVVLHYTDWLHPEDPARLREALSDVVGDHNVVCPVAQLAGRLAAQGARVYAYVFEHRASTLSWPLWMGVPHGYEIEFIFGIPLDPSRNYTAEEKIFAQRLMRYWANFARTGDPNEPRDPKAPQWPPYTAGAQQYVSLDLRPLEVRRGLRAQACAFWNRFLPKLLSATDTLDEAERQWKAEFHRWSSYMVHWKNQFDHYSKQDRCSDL

SMILES | Ki [1] | Ki [2] | FRAP value / reducing power compared with Trolox and BHT [3] | IC50 at 24 h ([4]; IC50 ± SE) | IC50 at 24 h ([5]; IC50 ± SE) | IC50 at 24 h ([6]; IC50 ± SE) | IC50 at 24 h [7] | SI = Ki(BChE)/Ki(AChE) [1] | IC50 at 24 h ([5]; in mM) | IC50 at 24 h ([4]; in mM) | IC50 at 24 h ([6]; in mM) | Toxicity to any tested cell type [8] | AChE inhibition potency, times lower compared to 2 ([1]; fold, compared to compound 2) | Selectivity to BChE ([2]; BChE over AChE) | FRAP value relative to the FRAP value for BHT [3]
CCN(CC)Cc1cc(Nc2ccnc3ccc(F)cc23)ccc1O [Compound 7] | 0.051 ± 0.002 µM | 11 ± 1 µM | not more than 50% lower than those of either Trolox or BHT | 0.159 ± 0.041 mM | 0.529 ± 0.029 mM | 0.181 ± 0.041 mM | ≥ 100 µM |  |  |  |  |  |  |  | 
CCN(CC)Cc1cc(Nc2ccnc3c(F)cccc23)ccc1O [Compound 8] | 0.51 ± 0.03 µM | 5.4 ± 0.5 µM |  | 0.134 ± 0.047 mM |  | 0.085 ± 0.005 mM |  | 11 | ≥ 1 mM |  |  |  |  |  | 
CCN(CC)Cc1cc(Nc2ccnc3ccc(C(F)(F)F)cc23)ccc1O [Compound 9] | 0.093 ± 0.003 µM | 14 ± 1 µM |  |  |  |  | ≥ 100 µM |  | ≥ 1 mM | ≥ 1 mM | ≥ 1 mM | not toxic to any tested cell type |  |  | 
CCN(CC)Cc1cc(Nc2ccnc3c(C(F)(F)F)cccc23)ccc1O [Compound 10] | 1.2 ± 0.1 µM | 20 ± 1 µM |  | 0.087 ± 0.033 mM |  | 0.088 ± 0.008 mM |  | 17 | ≥ 1 mM |  |  |  |  |  | 
CCN(CC)Cc1cc(Nc2cc(C(F)(F)F)nc3ccccc23)ccc1O [Compound 11] | 7.6 ± 0.3 µM | 1.7 ± 0.1 µM | not more than 50% lower than those of either Trolox or BHT | 0.025 ± 0.004 mM | 0.232 ± 0.068 mM | 0.035 ± 0.005 mM |  | 0.22 |  |  |  |  | 100 | about five times more selective to BChE | 
CCN(CC)Cc1cc(Nc2ccnc3ccc(C#N)cc23)ccc1O [Compound 12] | 0.19 ± 0.01 µM | 21 ± 1 µM |  | 0.088 ± 0.031 mM | 0.276 ± 0.046 mM | 0.092 ± 0.017 mM |  |  |  |  |  |  |  |  | 
CCN(CC)Cc1cc(Nc2ccnc3cccc(C(=O)O)c23)ccc1O [Compound 13] | 1.3 ± 0.1 µM | 16 ± 1 µM |  | 0.103 ± 0.008 mM | 0.546 ± 0.046 mM | 0.148 ± 0.017 mM | ≥ 100 µM | 12 |  |  |  |  |  |  | 
CCN(CCO)Cc1cc(Nc2ccnc3cc(Cl)ccc23)ccc1O [Compound 14] | 0.11 µM | 6.8 ± 0.3 µM | greater potency than both Trolox and BHT |  |  |  | ≥ 100 µM | 62 | ≥ 1 mM | ≥ 1 mM | ≥ 1 mM | not toxic to any tested cell type |  |  | higher than 50%
